Patent US20240083861A1, “HSD17B13 INHIBITORS AND USES THEREOF” (FL2022-001, Inc., priority 2020, published 2024)

Biological target: T1, Recombinant human HSD17B13 enzyme (Homo sapiens, UniProt Q7Z5P4)
T1 sequence (Q7Z5P4 20-300): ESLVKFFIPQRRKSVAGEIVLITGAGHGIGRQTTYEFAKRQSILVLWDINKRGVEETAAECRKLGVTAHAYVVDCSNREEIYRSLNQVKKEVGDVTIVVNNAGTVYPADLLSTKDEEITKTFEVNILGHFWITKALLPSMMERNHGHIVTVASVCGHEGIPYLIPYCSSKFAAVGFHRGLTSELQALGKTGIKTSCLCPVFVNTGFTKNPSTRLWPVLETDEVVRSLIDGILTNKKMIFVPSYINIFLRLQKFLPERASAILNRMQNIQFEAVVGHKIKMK
Test: HSD17b13 NAD(P)H-Glo biochemical assay
Conditions: 50 uM estradiol, 1 mM NAD+, NAD(P)H-Glo luminescence; read-out: HSD17β13 IC50
Description: Example B-1: HSD17b13 NAD(P)H-Glo Biochemical Assay
Recombinant human HSD17B13 enzyme. Substrate: estradiol (Sigma β-Estradiol E8875), 100 mM in DMSO. Cofactor: NAD+ Grade I free acid (Sigma 10127965001), 20 mM in H2O. Assay buffer final concentration: 20 mM Tris pH7.4 with 0.002% Tween-20 and 0.02% BSA. Assay performed in 384 well solid bottom plate (Corning 3570). Enzymatic activity detected by NAD(P)H-Glo™ Detection System (Promega G9062).
Inhibitor compounds were serially diluted in DMSO and then further diluted in assay buffer to a 10× concentration consisting of 1% DMSO.
HSD17b13 enzyme was diluted in 1× assay buffer to the desired enzyme concentration based on the specific activity of the enzyme lot. 20 uL of diluted enzyme was added to each well along with 2.5 uL of 10× inhibitor solution. Assay plate was incubated at RT for 20 minutes, and then 2.5 uL of a 10× substrate/cofactor mix was added to each well for a final concentration of 50 uM estradiol and 1 mM NAD+. Assay plate was incubated at 37° C. for 3 hours. NAD(P)H-Glo™ Detection System reagents were prepared according to manufacturer's specifications, and 25 uL was added to each well. After incubating for 1 hour at RT, luminescence was measured.

Row | IC50 | Structure (SMILES)
1 | 100 to 1000 nM | CS(=O)(=O)N1CCN(c2ccc3oc(-c4cc(O)cc(C(F)(F)F)c4)nc3c2)CC1 [Compound 4.02, 3-(5-(4-(Methylsulfonyl)piperazin-1-yl)benzo[d]oxazol-2-yl)-5-(trifluoromethyl)phenol]
2 | 100 to 1000 nM | CS(=O)(=O)N1CCN(c2cc3nc(-c4cc(O)c(F)c(F)c4)oc3cc2Cl)CC1 [Compound 5, 5-(6-Chloro-5-(4-(methylsulfonyl)piperazin-1-yl)benzo[d]oxazol-2-yl)-2,3-difluorophenol]
3 | 100 to 1000 nM | CS(=O)(=O)C1CN(c2cc3nc(-c4cc(O)c(F)c(F)c4)oc3cc2Cl)C1 [Compound 5.01, 5-(6-Chloro-5-(3-(methylsulfonyl)azetidine-1-yl)benzo[d]oxazol-2-yl)-2,3-difluorophenol]
4 | 100 to 1000 nM | CS(=O)(=O)N1CCN(c2ccc3oc(-c4cc(O)c(F)c(F)c4)nc3c2)CC1 [Compound 5.02, 2,3-Difluoro-5-(5-(4-(methylsulfonyl)piperazin-1-yl)benzo[d]oxazol-2-yl)phenol]
5 | < 100 nM | CS(=O)(=O)N1CCN(c2ccc3oc(-c4cc(O)c(F)c(C(F)(F)F)c4)nc3c2)CC1 [Compound 6, 2-Fluoro-5-(5-(4-(methylsulfonyl)piperazin-1-yl)benzo[d]oxazol-2-yl)-3-(trifluoromethyl)phenol]
6 | 100 to 1000 nM | CS(=O)(=O)N1CCN(c2cc3oc(-c4cc(O)c(F)c(C(F)(F)F)c4)nc3cn2)CC1 [Compound 6.01, 2-Fluoro-5-(6-(4-(methylsulfonyl)piperazin-1-yl)oxazolo[4,5-c]pyridin-2-yl)-3-(trifluoromethyl)phenol]
7 | < 100 nM | CS(=O)(=O)N1CCN(c2ccc3nc(-c4cc(O)c(F)c(C(F)(F)F)c4)oc3c2)CC1 [Compound 6.02, 2-Fluoro-5-(6-(4-(methylsulfonyl)piperazin-1-yl)benzo[d]oxazol-2-yl)-3-(trifluoromethyl)phenol]
8 | 100 to 1000 nM | CS(=O)(=O)N1CCN(c2ccc3oc(-c4cc(C(F)(F)F)c(F)c(O)c4F)nc3c2)CC1 [Compound 7, 2,6-Difluoro-3-(5-(4-(methylsulfonyl)piperazin-1-yl)benzo[d]oxazol-2-yl)-5-(trifluoromethyl)phenol]
9 | 1000 to 30000 nM | CS(=O)(=O)N1CCN(c2ccc3oc(-c4cc(C(F)(F)F)cc(O)n4)nc3c2)CC1 [Compound 7.01, 6-(5-(4-(Methylsulfonyl)piperazin-1-yl)benzo[d]oxazol-2-yl)-4-(trifluoromethyl)pyridin-2-ol]
10 | < 100 nM | Cn1nc(-c2cc(C(F)(F)F)c(F)c(O)c2F)c2cnc(N3CCOCC34CC4)cc21 [Compound 8, 2,6-Difluoro-3-(1-methyl-6-(7-oxa-4-azaspiro[2.5]octan-4-yl)-1H-pyrazolo[4,3-c]pyridin-3-yl)-5-trifluoromethyl phenol]
11 | < 100 nM | CN(c1cc2c(cn1)c(-c1cc(C(F)(F)F)c(F)c(O)c1F)nn2C)C1CC1 [Compound 9, 3-(6-(Cyclopropyl(methyl)amino)-1-methyl-1H-pyrazolo[4,3-c]pyridin-3-yl)-2,6-difluoro-5-(trifluoromethyl)phenol]
12 | < 100 nM | Cn1nc(-c2cc(C(F)(F)F)cc(O)c2F)c2cnc(N3CCN(S(C)(=O)=O)CC3)cc21 [Compound 9.01, 2-Fluoro-3-(1-methyl-6-(4-(methylsulfonyl)piperazin-1-yl)-1H-pyrazolo[4,3-c]pyridin-3-yl)-5-(trifluoromethyl)phenol]
13 | 1000 to 30000 nM | Cn1nc(-c2cc(C(F)(F)F)cc(O)c2F)c2ccc(N3CCN(S(C)(=O)=O)CC3)cc21 [Compound 9.02, 2-Fluoro-3-(1-methyl-6-(4-(methylsulfonyl)piperazin-1-yl)-1H-indazol-3-yl)-5-(trifluoromethyl)phenol]

Same assay, conditions: at 10 uM compound; read-out: HSD17β13 % inhibition at 10 uM

Row | inhibition at 10 µM | Structure (SMILES)
14 | 40% | CS(=O)(=O)N1CCN(c2ccc3oc(-c4cc(C(F)(F)F)c(F)c(O)n4)nc3c2)CC1 [Compound 7.02, 3-Fluoro-6-(5-(4-(methylsulfonyl)piperazin-1-yl)benzo[d]oxazol-2-yl)-4-(trifluoromethyl)pyridin-2-ol]
